# Measured values published in patent publication US9265845B2, “Imaging methods using engineered integrin binding peptides” (The Board of Trustees of the Leland Stanford Junior …, priority 2006, dated 2016).
# Entries after “also recorded” stand apart in the source; their conditions may differ. Read-outs that look alike come from different tables or passages of the source. Positions of bridges follow the written chain, without caps; N, C: chain ends. Residues, ends and D or L forms follow the SMILES beside them. No end group written: not given here.
# Assays:
# αvβ3 integrin [1] = molecular target: T1, αvβ3 integrin (Homo sapiens, UniProt P05106+P06756); experiment: Yeast-displayed peptide binding to soluble αvβ3 integrin, flow cytometry; details: yeast-displayed peptides
# Method: The yeast display construct shown in FIG. 1A has the general orientation: Aga2-HA-engineered knottin—c-myc epitope, with the c-myc epitope at the carboxy terminus of the peptide. […] Bound integrin is detected with an anti-integrin antibody, labeled with FITC.
# Below is a typical protocol to label a yeast library samples for sorting by flow cytometry (FACS): • 1. Want 2×10^6 cells, OD600 of […] • 2. Add 1 mL PBS/BSA (phosphate buffered saline containing 1 mg/mL bovine serum albumin) to wash cells • 3. Spin down cells 3 min at 8000 RPM • 4. Remove supernatant using vacuum • 5. Re-suspend in 40 μL PBS/BSA containing proper amount of integrin (100 nM [2.5 μL of stock αvβ3]; no anti-cmyc at this point) • 6. Incubate for 1.5 h at r.t (w/tumbling) • 7. Add 1:250 dilution of (chick anti-cmyc) to labeling solution • 8. […] Incubate 1 h at 4° C. (w/tumbling) • 10. Keep on ice after this step. • 11. Spin down cells 3 min at 8000 RPM, 4° C. and vacuum supernatant • 12. Repeat wash steps 2-4 • 13. Re-suspend in 40 μL PBS/BSA containing proper amount of secondary labels (secondary labeling is simultaneous) • i. Anti-integrin Ab (FITC conj): 1:25 dilution+Anti-chick (Alexa 555): 1:100 dilution • ii. Positive control: Anti-chick (Alexa 555): 1:100 dilution (for FACS compensation) • iii. Positive control: Anti-chick (Alexa 488): 1:100 dilution (for FACS compensation) • 14. Incubate on ice 30 min and keep in dark (lid on ice bucket) • 15. Spin down cells at 3 min at 8000 RPM, 4° C. and vacuum supernatant • 16. Repeat steps 2-4: Add 1 mL PBS/BSA, pellet cells, vacuum supernatant • 17. Leave pelleted cells on ice until use. Fluorescent Cell Sorting
# Commercially available flow cytometers can measure fluorescence emissions at the single-cell level at four or more wavelengths, at a rate of approximately 50,000 cells per second (Ashcroft and Lopez, 2000). Typical flow cytometry data are shown in FIG. 4-7, in which yeast have been labeled with two different color fluorescent probes to measure protein expression levels and bound soluble ligand (in this case integrin receptor). A ‘diagonal’ population of cells results due to variation in protein expression levels on a per cell basis: cells that express more protein will bind more ligand. The equilibrium binding constant (Kd) can be determined by titration of soluble ligand, and the dissociation rate constant (koff) can be measured through competition binding of unlabeled ligand. With yeast, a monodispersity of tethered proteins exists over the cell surface, and soluble ligand are used for binding and testing, such that avidity effects are not observed, unlike other display methods using immobilized ligands. To date, the properties of most proteins expressed on the yeast cell surface mimic what is seen in solution in terms of stability and binding affinity (Bader et al., 2000; Feldhaus et al., 2003; Holler et al., 2000; VanAntwerp and Wittrup, 2000). See, also, Weaver-Feldhaus et al., “Directed evolution for the development of conformation-specific affinity reagents using yeast display,” Protein Engineering Design and Selection Sep. 26, 2005 18(11):527-536.
# Cell sorting was carried out on a FACSVantage (BD Biosciences) multiparameter laser flow cytometer and cell sorter. Before sorting, fluorescent staining was carried out as described above, so that analysis of integrin binding and c-myc expression levels were detected, as described above. […]
# [2] = system: subcutaneous U87MG glioblastoma tumors; experiment: In vivo optical imaging of Cy5.5-labeled peptides in U87MG xenograft mice; design: species or system mouse
# Method: FIG. 8A is a series of 4 pictures showing in vivo imaging of Cy5.5-labeled polypeptides in mice. 1.5 nmol of Cy5.5-labeled EETI-RGD peptide 2.5D or other indicated peptide was injected by tail vein into U87MG glioblastoma xenograft mouse models and imaged at various time points post injection. Arrows indicate the position of tumors. […] Cy5.5-labeled FN-RDG negative control (bottom line, open squares) indicates background levels.
# Whole-body imaging of subcutaneous mouse xenografts were imaged with the IVIS 200 system (Xenogen) and quantified with Living Image 2.50.1 software.
# U87MG tumor = experiment: MicroPET imaging and biodistribution of radiolabeled peptides in U87MG tumor-bearing mice; format: in vivo, mouse; details: radiolabeled peptides, U87MG tumor-bearing mice
# Procedure, shortened: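 Female athymic nude mice carrying subcutaneous U87MG xenografts (8–10 mm) received ~100 μCi 64Cu-DOTA peptides i.v. (tail vein); static microPET scans under 2% isoflurane. %ID/g obtained from ROIs on decay-corrected images assuming 1 g/mL density, without attenuation correction. Biodistribution measured by γ-counting of excised tissues, reported as %ID/g mean±SD.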
# [3] = molecular target: T2, αvβ3 integrin on U87MG glioblastoma cells (Homo sapiens, UniProt P05106+P06756); experiment: 125I-echistatin competition binding to U87MG glioblastoma cells; details: read-out: IC50, competition with 125I-echistatin, U87MG tumor cells
# T2 construct: host or cells: U87MG glioblastoma cells
# Method: FIG. 9 is a graph showing normalized competition plotted against peptide concentration in an integrin-binding assay on U87MG glioblastoma cells.
# U87MG glioblastoma cells, which express ˜10^5 αvβ3 integrin receptors per cell, were used for these studies. […] An EETI-based polypeptide with a scrambled RDG amino acid sequence, designated FN-RDG, served as a negative control.
# Half-maximal inhibitory concentrations (IC50) […] of data measured on at least three separate days. Data for unlabeled and Cy5.5-labeled peptides are shown. Site-specific labeling of RGD miniproteins with a near-infrared optical imaging probe: The free N-terminal amine of our polypeptides was used for site-specific attachment of Cy5.5, a near infrared imaging probe.
# An αvβ3 integrin receptor binding assay is performed to determine the relative affinities of the mock-PET tracers compared to their unlabeled polypeptides. Briefly, 2×10^5 U87MG glioblastoma cells are incubated with 0.06 nM ^125I-echistatin in integrin binding buffer (25 mM Tris-HCl, pH 7.4, 150 mM NaCl2 1 mM CaCl2 1 mM MgCl2, 1 mM MnCl2, 0.1% BSA), in the presence of increasing concentrations of mock-PET tracers at room temperature. After incubation for 3 h, cells are pelleted by centrifugation at 1500 RPM and washed three times in binding buffer to remove unbound ligands. The radioactivity remaining in the cell pellet is measured by γ counting. IC50 values are determined by plotting the % competition and using a four-point binding equation (Kaleidagraph) to fit the data.
# α5β1 integrin = α5β1 integrin (Homo sapiens, UniProt P05556+P08648); experiment: Competition of 125I-echistatin to detergent-solubilized plate-coated integrin; format: binding; details: 0.06 nM 125I echistatin, 5 nM and 50 nM peptide
# Procedure, shortened: (§1)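 Detergent-solubilized integrins were coated on plates. Displacement of 0.06 nM 125I-echistatin by unlabeled peptide was measured at 5 nM and 50 nM. Experiments were run in triplicate.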
# αiibβ3 integrin = αiibβ3 integrin (Homo sapiens, UniProt P05106+P08514); experiment: as above; format: binding; details: 0.06 nM 125I echistatin, 5 nM and 50 nM peptide
# Procedure, shortened: as §1
# αvβ3 integrin [4] = molecular target: T1, αvβ3 integrin; experiment: as above; format: binding; details: 0.06 nM 125I echistatin, 5 nM and 50 nM peptide
# Procedure, shortened: as §1
# αvβ5 integrin = αvβ5 integrin (Homo sapiens, UniProt P06756+P18084); experiment: as above; format: binding; details: 0.06 nM 125I echistatin, 5 nM and 50 nM peptide
# Procedure, shortened: as §1
# U87MG glioblastoma cells [5] = experiment: Blocking of U87MG cell adhesion to vitronectin-coated plates; format: cell-based; details: vitronectin-coated wells
# From the text: (§2) The present engineered peptides may be used in a variety of ways. If the peptides are attached to a surface, they may be used to attract/recruit cells to grow on the surface. For example, the present peptides may be applied to prosthetic devices, implants, bone grafts, and the like to promote tissue growth and healing at the site. They may be attached to culture dishes and promote attachment and differentiation of cells in culture. In addition, the present engineered peptides may be used to modulate cell binding to selected integrins such as α5β1, αvβ3 and αvβ5, particularly αvβ3, by adding the peptides to a cell culture to prevent cells expressing these integrins from adhering to a substrate. […] Also, the present 2.5F, 2.5D and 1.5B peptides were tested for blocking adhesion of U87MG glioblastoma cells to fibronectin-coated plates.
# (§3) In another experiment, the ability of engineered knottin peptides to block U87MG cell adhesion to vitronectin- and fibronectin-coated microtiter plates. Vitronectin is a natural ligand for several integrins, including αvβ3 and αvβ5. The RGD-containing peptides were all able to inhibit U87MG cell adhesion to vitronectin-coated plates in a dose-responsive manner. […] Fibronectin also binds to several integrins, (including αvβ3 and α5β1), but the α5β1 integrin receptor is generally selective for fibronectin.
# Whether the engineered AgRP peptides could block vitronectin-mediated adhesion to the U87MG cells was tested using an analogous assay. […] The AgRP peptides may not effectively block U87MG adhesion compared to the K562-αvβ3 cells because the αvβ5 integrins co-expressed on the surface of the U87MG cells could also contribute to vitronectin-mediated adhesion and compensate for the loss of αvβ3 integrin function.
# U87MG glioblastoma cells [6] = experiment: Blocking of U87MG cell adhesion to fibronectin-coated plates; format: cell-based
# From the text: as §2, §3
# K562-αvβ3 cells = experiment: Inhibition of vitronectin-mediated adhesion of K562-αvβ3 cells; format: cell-based; details: vitronectin-coated microtiter wells
# Method: To determine whether the engineered AgRP peptides could inhibit cell adhesion mediated by vitronectin, the primary ligand for αvβ3 integrin, K562-αvβ3 cells were incubated with varying concentrations of peptides in microtiter wells coated with vitronectin to determine the ability of the peptides to inhibit cell adhesion. […] This difference may be a result of multivalent interactions between the cell surface αvβ3 integrins and the immobilized vitronectin, thereby making it more difficult for the peptides to compete.
# αvβ3 integrin [7] = molecular target: T1, αvβ3 integrin; details: cited from earlier work
Compound,integrin binding compared in words (αvβ3 integrin [1]),"tumor uptake / imaging signal of Cy5.5-labeled peptide, in words [2]","PET tumor targeting / imaging signal, in words (U87MG tumor)",IC50 ([3]; Cy5.5-labeled peptides (Cy5.5: Yes)) [nM],IC50 ([3]; unlabeled peptides (Cy5.5: No)) [nM],"binding to α5β1 integrin, in words (α5β1 integrin)","binding to αiibβ3 integrin, in words (αiibβ3 integrin)","binding to αvβ3 integrin, in words (αvβ3 integrin [4])","binding to αvβ5 integrin, in words (αvβ5 integrin)",IC50 (U87MG glioblastoma cells [5]) [nM],"blocking of U87MG cell adhesion to fibronectin, in words (U87MG glioblastoma cells [6])",IC50 (K562-αvβ3 cells) [nM],Kd (αvβ3 integrin [7]) [nM]
"CC(C)C[C@@H]1NC(=O)[C@@H]2CSSC[C@@H](C(=O)NCC(=O)O)NC(=O)[C@H](Cc3ccccc3)NC(=O)CNC(=O)[C@H](CC(N)=O)NC(=O)[C@@H]3CCCN3C(=O)CNC(=O)[C@@H]3CSSC[C@H](NC(=O)[C@H](CO)NC(=O)[C@H](CO)NC(=O)[C@H](C)NC(=O)[C@@H]4CCCN4C(=O)[C@H](CO)NC(=O)[C@H](CC(=O)O)NC(=O)CNC(=O)[C@H](CCCNC(=N)N)NC(=O)CNC(=O)[C@H]([C@@H](C)O)NC(=O)[C@H](C(C)C)NC(=O)[C@@H](NC(=O)CN)CSSC[C@H](NC(=O)CNC(=O)[C@H](C)NC1=O)C(=O)N[C@@H](C(C)C)C(=O)N3)C(=O)N[C@@H](CCCCN)C(=O)N[C@@H](CCC(N)=O)C(=O)N[C@@H](CC(=O)O)C(=O)N[C@@H](CO)C(=O)N[C@@H](CC(=O)O)C(=O)N2 [RGD-EETI#3] (H-GCVTGRGDSPASSCKQDSDCLAGCVCGPNGFCG-OH; disulfide 2-24, 14-26, 20-32; N-terminus and C-terminus assumed)",binds better than the 10th domain of fibronectin,significantly weaker imaging signals,significantly weaker imaging signals,–,–,–,–,–,–,–,–,–,–
"ECESGPCCRNCKFLKEGTICKRARGDDMDDYCNGKTCDCPRNPHKGPAT (disulfide 2-11, 7-32, 8-37, 20-39 (inferred)) [Echistatin, echistatin]",–,–,–,2.6 ± 0.2,4.9 ± 1,binds strongly; also recorded: bound strongly,binds strongly; also recorded: bound strongly,binds strongly; also recorded: bound strongly,binds strongly; also recorded: bound strongly,5.8,blocked adhesion; also recorded: able to block,3.2 ± 2.7,0.3
